Data on four compounds can be found in EP4725957A1, “GROUP OF CYCLIC ALKALINE LIPOPEPTIDE COMPOUNDS, AND PREPARATION METHOD THEREFOR AND USE THEREOF” (Institute of Medicinal Biotechnology, Chinese Academy of …, priority 2023, dated 2024).

Converted amounts (≈) assume the structure as drawn. Bridge positions count the residues as written; N and C are the ends. Square brackets hold non-standard residues; d marks the D form. Peptide text beside a SMILES is read from it. * marks the point of attachment. Dab(CH2SO3H) = N[C@@H](CCNCS(=O)(=O)O)C(=O)O; Heptanoyl(6-Me) = CC(C)CCCCC(=O)*; Dab = NCC[C@H](N)C(=O)O; Dap = NC[C@H](N)C(=O)O A value given as a limit tells only on which side of the number the result lay.

Holding throughout (type): cell-based
The test system of series [1] is Acinetobacter baumannii ABA19-1. Particulars: ABA19-1. In short, it runs like this: (§1)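 The MIC value comes from CLSI broth microdilution after 16-20 h at 35-37°C. Cyclic lipopeptides in Mueller-Hinton broth spanned 64 to 0.03 mg/L final, with each well carrying (2-4) × 10^5 CFU/mL.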
For series [2], the system named is Acinetobacter baumannii NCTC 13304 (OXA-27). The note with it: NCTC 13304. In short, it runs like this: as §1
Series [3] relates to Escherichia coli ATCC BAA-2340 (KPC). Particulars: ATCC BAA-2340. In short, it runs like this:
as §1

For series [4], the system named is Escherichia coli ATCC BAA-2523. The note with it: ATCC BAA-2523. In short, it runs like this:
as §1

Series [5] deals with Klebsiella pneumoniae ATCC BAA-1705 (KPC). The note with it: ATCC BAA-1705. In short, it runs like this: as §1
The test system of series [6] is Klebsiella pneumoniae KPN+19-15. The note with it: KPN+19-15. In short, it runs like this: as §1
Series [7] has as its system Pseudomonas aeruginosa ATCC 27853. Particulars: ATCC 27853. In short, it runs like this:
as §1

Series [8] concerns Pseudomonas aeruginosa PAE19-3. Particulars: PAE19-3. In short, it runs like this: as §1
Series [9] in a line: Nephrotoxicity assay: in vitro cytotoxicity of HK-2 cells by CCK-8 assay. The note with it: human, HK-2 cells (human renal), 72 h incubation with drug-containing medium. In short, it runs like this:
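Compounds in sterile water, diluted to final 500, 250, 200, 100, 50, 25 and 12.5 µg/mL, were applied for 72 h to human HK-2 kidney cells. Absorbance at 450 nm after 3 h CCK-8 gave viability against untreated wells, and IC50 came from logarithmic regression; three replicates.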
On the technique in general: Tetrazolium assays rely on reduction of a dye to a coloured formazan, in cell work by metabolically active cells.

Take `CC(C)CCCCC(=O)N[C@@H](CCNCS(=O)(=O)O)C(=O)N[C@H](C(=O)N[C@@H](CN)C(=O)N[C@H]1CCNC(=O)[C@H]([C@@H](C)O)NC(=O)[C@H](CCN)NC(=O)[C@H](CCN)NC(=O)[C@H]([C@@H](C)O)NC(=O)[C@@H](Cc2ccccc2)NC(=O)[C@H](CCN)NC1=O)[C@@H](C)O` [Compound 117, 6-methylheptanoyl-Dab(CH2SO3H)-Thr-Dap-ring(4-10)[Dab-Dab-D-Phe-Thr-Dab-Dab-Thr]] ({Heptanoyl(6-Me)}-[Dab(CH2SO3H)]T[Dap][Dab][Dab][dF]T[Dab][Dab]T; lactam 4-C): the minimum inhibitory concentration (MIC) was 0.25 µg/mL (≈ 0.199 µM) in series [1]; 0.06 µg/mL (≈ 0.0477 µM) in series [2]; 0.06 µg/mL (≈ 0.0477 µM) in [3]; 0.06 µg/mL (≈ 0.0477 µM) in series [4]; 0.125 µg/mL (≈ 0.0994 µM) in series [5]; 0.125 µg/mL (≈ 0.0994 µM) in series [6]. Further, the minimum inhibitory concentration (MIC) in series [7] is recorded as 0.25 µg/mL (≈ 0.199 µM); in series [8], 0.5 µg/mL (≈ 0.398 µM). The compound further showed a half-maximal inhibitory concentration (IC50) at 72 h in [9] above 500 µg/mL.
Turning to `CC(C)CCCCC(=O)N[C@@H](CCN)C(=O)N[C@H](C(=O)N[C@@H](CN)C(=O)N[C@H]1CCNC(=O)[C@H]([C@@H](C)O)NC(=O)[C@H](CCN)NC(=O)[C@H](CCN)NC(=O)[C@H]([C@@H](C)O)NC(=O)[C@@H](Cc2ccccc2)NC(=O)[C@H](CCNCS(=O)(=O)O)NC1=O)[C@@H](C)O` [Compound 118, 6-methylheptanoyl-Dab-Thr-Dap-ring(4-10)[Dab-Dab(CH2SO3H)-D-Phe-Thr-Dab-Dab-Thr]] ({Heptanoyl(6-Me)}-[Dab]T[Dap][Dab][Dab(CH2SO3H)][dF]T[Dab][Dab]T; lactam 4-C), the MIC in series [1] was 0.25 µg/mL (≈ 0.199 µM); in series [2], 0.06 µg/mL (≈ 0.0477 µM); in series [3], 0.06 µg/mL (≈ 0.0477 µM); in series [4] it was 0.06 µg/mL (≈ 0.0477 µM); in [5], 0.125 µg/mL (≈ 0.0994 µM); in [6], 0.125 µg/mL (≈ 0.0994 µM). The MIC in series [7] is listed as 0.25 µg/mL (≈ 0.199 µM); in series [8] it was 0.5 µg/mL (≈ 0.398 µM). This compound also yielded a 50% inhibitory concentration (IC50) at 72 h in series [9] above 500 µg/mL.
As to `CC(C)CCCCC(=O)N[C@@H](CCN)C(=O)N[C@H](C(=O)N[C@@H](CN)C(=O)N[C@H]1CCNC(=O)[C@H]([C@@H](C)O)NC(=O)[C@H](CCN)NC(=O)[C@H](CCNCS(=O)(=O)O)NC(=O)[C@H]([C@@H](C)O)NC(=O)[C@@H](Cc2ccccc2)NC(=O)[C@H](CCN)NC1=O)[C@@H](C)O` [Compound 119, 6-methylheptanoyl-Dab-Thr-Dap-ring(4-10)[Dab-Dab-D-Phe-Thr-Dab(CH2SO3H)-Dab-Thr]] ({Heptanoyl(6-Me)}-[Dab]T[Dap][Dab][Dab][dF]T[Dab(CH2SO3H)][Dab]T; lactam 4-C), the MIC in [1] was determined as 0.25 µg/mL (≈ 0.199 µM); in [2], 0.06 µg/mL (≈ 0.0477 µM); in [3] it was 0.06 µg/mL (≈ 0.0477 µM); in series [4], 0.06 µg/mL (≈ 0.0477 µM); in [5], 0.125 µg/mL (≈ 0.0994 µM); in [6], 0.125 µg/mL (≈ 0.0994 µM). Besides, the MIC worked out at 0.25 µg/mL (≈ 0.199 µM) in series [7] and 0.5 µg/mL (≈ 0.398 µM) in series [8]. In [9], this compound registered an IC50 at 72 h above 500 µg/mL.
Regarding `CC(C)CCCCC(=O)N[C@@H](CCN)C(=O)N[C@H](C(=O)N[C@@H](CN)C(=O)N[C@H]1CCNC(=O)[C@H]([C@@H](C)O)NC(=O)[C@H](CCNCS(=O)(=O)O)NC(=O)[C@H](CCN)NC(=O)[C@H]([C@@H](C)O)NC(=O)[C@@H](Cc2ccccc2)NC(=O)[C@H](CCN)NC1=O)[C@@H](C)O` [Compound 120, 6-methylheptanoyl-Dab-Thr-Dap-ring(4-10)[Dab-Dab-D-Phe-Thr-Dab-Dab(CH2SO3H)-Thr]] ({Heptanoyl(6-Me)}-[Dab]T[Dap][Dab][Dab][dF]T[Dab][Dab(CH2SO3H)]T; lactam 4-C), the MIC in series [1] was 0.25 µg/mL (≈ 0.199 µM); in series [2] it was 0.06 µg/mL (≈ 0.0477 µM); in series [3], 0.06 µg/mL (≈ 0.0477 µM); in series [4] it was 0.06 µg/mL (≈ 0.0477 µM); in series [5], 0.125 µg/mL (≈ 0.0994 µM); in [6], 0.125 µg/mL (≈ 0.0994 µM). The results for the MIC in series [7] and in [8] were 0.25 µg/mL (≈ 0.199 µM) and 0.5 µg/mL (≈ 0.398 µM), respectively. The IC50 at 72 h in [9] is above 500 µg/mL.

As usually defined, the MIC is the least concentration at which growth counts as inhibited. As usually defined, the IC50 is the concentration that gives 50% inhibition.
